Results from ChEMBL document CHEMBL4342466, “Novel, Self-Assembling Dimeric Inhibitors of Human β Tryptase” (J Med Chem, 2020).
Active and inactive are the calls of the source. No cut-off for these calls is given here.

Legend:
[1] = Inhibition of human recombinant beta-tryptase pre-incubated for 3 hrs before N-tert-butoxycarbonyl-Gln-Ala-Arg-AMC substrate addition and measured every 30 secs for 15 mins by spectrometry
[2] = Stability in human liver microsomes assessed as parent compound remaining at 15 uM in presence of NADPH incubated for 60 mins; type: ADME, Microsome; details: for remaining at 1 h, 15 µM: liver microsomes, read-out: Stability; for Stability: microsomes, 1 h, 15 µM
[3] = Stability in human liver microsomes assessed as parent compound remaining at 15 uM in presence of UDPGA incubated for 60 mins; type: ADME, Microsome; details: for remaining at 1 h, 15 µM: liver microsomes, read-out: Stability
[4] = Lipophilicity, logD of the compound at pH 7.4; type: physicochemical; details: buffer
Tryptase beta-2 = target: T1, Tryptase beta-2 (Mus musculus, UniProt P21845); assay: Inhibition of mouse MCP6 pre-incubated for 3 hrs before N-tert-butoxycarbonyl-Gln-Ala-Arg-AMC substrate addition and measured every 30 secs for 15 mins by spectrometry
T1 sequence (P21845 whole entry): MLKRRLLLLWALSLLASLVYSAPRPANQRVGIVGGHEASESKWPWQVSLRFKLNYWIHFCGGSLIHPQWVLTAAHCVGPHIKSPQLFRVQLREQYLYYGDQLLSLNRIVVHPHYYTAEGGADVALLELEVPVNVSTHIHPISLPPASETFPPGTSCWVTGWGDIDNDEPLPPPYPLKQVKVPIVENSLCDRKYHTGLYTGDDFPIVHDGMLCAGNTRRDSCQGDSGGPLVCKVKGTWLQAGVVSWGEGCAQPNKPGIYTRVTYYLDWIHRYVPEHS

Mus musculus = assay: Inhibition of tryptase activity in tumors of mouse xenografted with human HMC1 cells at 10 mg/kg, iv dosed at time 0 and again 24 hrs later and measured at 24 to 48 hrs after second dose; type: functional, organism-based
[5] = Stability in human liver microsomes assessed as parent compound remaining at 15 uM in absence of NADPH incubated for 60 mins; type: ADME, Microsome; details: for Stability: microsomes, 1 h, 15 µM; for remaining at 1 h, 15 µM: liver microsomes, read-out: Stability
[6] = Half life in C57BL/6 mouse at 5 mg/kg, iv measured over 0.25 to 24 hrs by LC-MS/MS analysis; type: ADME, organism-based; details: in vivo
[7] = Clearance in C57BL/6 mouse at 5 mg/kg, iv measured over 0.25 to 24 hrs by LC-MS/MS analysis; type: ADME, organism-based; details: in vivo
[8] = Apparent permeability from apical to basolateral side in MDCK cells; type: ADME, cell-based, Canis lupus familiaris; details: dog
[9] = Effective permeability from apical to basolateral side in PAMPA method; type: ADME; details: read-out: Peff
[10] = Effective permeability assessed as mass retention by PAMPA method; type: ADME
[11] = Dissociation constant, pKa of the compound (NH3*) by pH metric assay; type: physicochemical
[12] = Dissociation constant, pKa of the compound (B(OH)2) by UV metric assay; type: physicochemical
[13] = Dissociation constant, pKa of the compound (B(OH)2) by pH metric assay; type: physicochemical
[14] = Stability in mouse liver microsomes assessed as parent compound remaining at 15 uM in absence of NADPH incubated for 60 mins; type: ADME, Microsome; details: read-out: Stability
[15] = Stability in rat liver microsomes assessed as parent compound remaining at 15 uM in presence of NADPH incubated for 60 mins; type: ADME, Microsome; details: read-out: Stability
[16] = Stability in rat liver microsomes assessed as parent compound remaining at 15 uM in absence of NADPH incubated for 60 mins; type: ADME, Microsome; details: read-out: Stability
[17] = Stability in mouse liver microsomes assessed as parent compound remaining at 15 uM in presence of NADPH incubated for 60 mins; type: ADME, Microsome; details: read-out: Stability
CYP1A2 = target: T2, CYP1A2 (Homo sapiens, UniProt P05177); assay: Inhibition of CYP1A2 (unknown origin) at 10 uM relative to control; type: ADME
T2 sequence (P05177 whole entry): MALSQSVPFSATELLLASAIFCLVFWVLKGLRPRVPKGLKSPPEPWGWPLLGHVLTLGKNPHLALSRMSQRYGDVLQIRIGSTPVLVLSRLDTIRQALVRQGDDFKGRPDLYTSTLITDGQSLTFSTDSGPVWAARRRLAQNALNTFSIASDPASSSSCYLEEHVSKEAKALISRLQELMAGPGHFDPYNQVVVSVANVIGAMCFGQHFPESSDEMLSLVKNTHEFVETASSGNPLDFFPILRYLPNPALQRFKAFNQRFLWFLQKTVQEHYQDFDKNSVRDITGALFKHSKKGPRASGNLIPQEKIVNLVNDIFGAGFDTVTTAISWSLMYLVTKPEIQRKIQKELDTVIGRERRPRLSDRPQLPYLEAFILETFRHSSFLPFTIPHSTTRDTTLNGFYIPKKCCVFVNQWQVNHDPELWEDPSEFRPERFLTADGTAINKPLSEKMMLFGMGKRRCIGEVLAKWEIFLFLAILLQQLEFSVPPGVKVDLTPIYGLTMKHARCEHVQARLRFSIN

CYP2D6 = CYP2D6 (Homo sapiens, UniProt P10635); assay: Inhibition of CYP2D6 (unknown origin) at 10 uM relative to control; type: ADME
CYP3A4 = CYP3A4 (Homo sapiens, UniProt P08684); assay: Inhibition of CYP3A4 (unknown origin) at 10 uM relative to control; type: ADME
CYP2C9 = CYP2C9 (Homo sapiens, UniProt P11712); assay: Inhibition of CYP2C9 (unknown origin) at 10 uM relative to control; type: ADME
CYP2C19 = CYP2C19 (Homo sapiens, UniProt P33261); assay: Inhibition of CYP2C19 (unknown origin) at 10 uM relative to control; type: ADME
[18] = Tmax in C57BL/6 mouse at 50 mg/kg, po measured over 0.25 to 24 hrs by LC-MS/MS analysis; type: ADME, organism-based; details: in vivo
[19] = Time for Clast in C57BL/6 mouse at 5 mg/kg, iv measured over 0.25 to 24 hrs by LC-MS/MS analysis; type: ADME, organism-based; details: in vivo
[20] = Solubility of the compound; type: physicochemical
[21] = Time for Clast in C57BL/6 mouse at 50 mg/kg, po measured over 0.25 to 24 hrs by LC-MS/MS analysis; type: ADME, organism-based; details: in vivo

Sequence of CYP2D6 (P10635 whole entry): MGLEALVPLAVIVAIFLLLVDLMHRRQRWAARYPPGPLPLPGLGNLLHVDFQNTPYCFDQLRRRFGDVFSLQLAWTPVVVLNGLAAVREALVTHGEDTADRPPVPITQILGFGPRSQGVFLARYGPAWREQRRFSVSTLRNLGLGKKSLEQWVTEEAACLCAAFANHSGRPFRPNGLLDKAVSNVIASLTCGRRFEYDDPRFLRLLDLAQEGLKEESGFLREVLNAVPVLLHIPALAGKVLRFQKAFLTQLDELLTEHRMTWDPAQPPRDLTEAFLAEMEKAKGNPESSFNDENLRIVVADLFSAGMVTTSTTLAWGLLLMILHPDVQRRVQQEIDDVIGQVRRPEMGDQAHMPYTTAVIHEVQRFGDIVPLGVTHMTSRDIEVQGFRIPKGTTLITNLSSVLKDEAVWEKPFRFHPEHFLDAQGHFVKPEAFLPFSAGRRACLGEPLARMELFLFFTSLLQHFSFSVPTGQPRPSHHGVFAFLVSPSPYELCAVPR
Sequence of CYP2C9 (P11712 whole entry): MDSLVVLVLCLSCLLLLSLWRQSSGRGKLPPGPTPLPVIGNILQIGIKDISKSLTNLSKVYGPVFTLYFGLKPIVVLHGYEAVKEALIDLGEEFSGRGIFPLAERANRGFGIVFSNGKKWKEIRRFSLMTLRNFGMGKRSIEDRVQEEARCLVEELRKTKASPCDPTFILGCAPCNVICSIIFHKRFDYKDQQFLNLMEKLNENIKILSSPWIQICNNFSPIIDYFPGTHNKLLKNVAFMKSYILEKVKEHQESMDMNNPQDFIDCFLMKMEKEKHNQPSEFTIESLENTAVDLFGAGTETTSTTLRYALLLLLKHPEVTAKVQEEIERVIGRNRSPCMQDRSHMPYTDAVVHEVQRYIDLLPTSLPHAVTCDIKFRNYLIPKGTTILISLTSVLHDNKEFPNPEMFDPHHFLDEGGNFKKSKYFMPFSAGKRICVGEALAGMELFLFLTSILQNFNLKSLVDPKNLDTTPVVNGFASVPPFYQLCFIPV
Sequence of CYP2C19 (P33261 whole entry): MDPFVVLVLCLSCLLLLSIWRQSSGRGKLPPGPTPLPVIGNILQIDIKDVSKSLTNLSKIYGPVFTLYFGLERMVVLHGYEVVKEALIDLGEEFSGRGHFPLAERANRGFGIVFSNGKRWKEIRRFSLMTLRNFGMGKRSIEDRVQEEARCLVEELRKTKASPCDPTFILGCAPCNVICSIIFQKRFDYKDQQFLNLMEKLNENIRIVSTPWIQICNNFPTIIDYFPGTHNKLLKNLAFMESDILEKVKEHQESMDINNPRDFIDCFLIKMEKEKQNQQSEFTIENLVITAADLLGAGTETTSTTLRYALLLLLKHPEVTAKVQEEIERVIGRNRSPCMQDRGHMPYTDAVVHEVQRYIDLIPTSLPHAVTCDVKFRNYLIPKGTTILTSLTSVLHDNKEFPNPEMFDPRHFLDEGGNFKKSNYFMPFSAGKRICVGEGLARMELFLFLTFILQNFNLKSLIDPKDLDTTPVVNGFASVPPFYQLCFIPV
Sequence of CYP3A4 (P08684 whole entry): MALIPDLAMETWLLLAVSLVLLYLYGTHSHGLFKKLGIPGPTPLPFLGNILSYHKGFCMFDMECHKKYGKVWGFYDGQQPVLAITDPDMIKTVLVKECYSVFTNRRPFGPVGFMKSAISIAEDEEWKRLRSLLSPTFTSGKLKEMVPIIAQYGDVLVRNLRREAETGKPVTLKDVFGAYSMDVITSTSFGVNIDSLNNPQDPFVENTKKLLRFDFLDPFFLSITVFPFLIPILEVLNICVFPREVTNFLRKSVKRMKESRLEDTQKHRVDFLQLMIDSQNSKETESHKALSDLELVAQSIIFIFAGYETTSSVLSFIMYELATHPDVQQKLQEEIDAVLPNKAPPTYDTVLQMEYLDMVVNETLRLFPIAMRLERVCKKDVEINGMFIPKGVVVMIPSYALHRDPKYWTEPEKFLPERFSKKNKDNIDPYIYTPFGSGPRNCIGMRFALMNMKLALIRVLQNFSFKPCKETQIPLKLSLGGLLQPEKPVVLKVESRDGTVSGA

| remaining at 1 h, 15 µM [2] [%] | remaining at 1 h, 15 µM [3] [%] | remaining at 1 h, 15 µM [5] [%] | Compound | IC50 [1] [µM] | IC50 (Tryptase beta-2) [µM] | other results |
| --- | --- | --- | --- | --- | --- | --- |
| 82 | 82 | – | NCc1ccc2c(c1)C1(CCN(C(=O)c3cccc(-c4cccc5c4COB5O)c3)CC1)CO2 | 1.5 | 2.89 | logD [4]: 1.69; inhibition (Mus musculus): inactive |
| 87 | 67 | – | CONC(=O)c1cc(C(=O)N2CCC3(CC2)COc2ccc(CN)cc23)ccc1O | 0.57 | 2.16 | Stability [5]: Stable |
| – | – | – | CONC(=O)c1ccc(C(=O)N2CCC3(CC2)COc2ccc(CN)cc23)cc1O | 0.0434 | – | Stability [2]: Stable; Stability [5]: Stable; Stability ([3]; microsomes, 1 h, 15 µM): Stable |
| – | – | – | Cc1cc(C(=O)N2CCC(c3cccc(CN)c3)CC2)cc(-c2cccc(B(O)O)c2)c1C | 1.25 | – | – |
| 2 | 1 | 1 | NCc1cccc(C2CCN(C(=O)c3cccc(-c4cccc(B(O)O)c4)c3)CC2)c1 | 0.843 | 1.42 | half-life [6]: 3.6 h; clearance [7]: 3.15 L/h/kg |
| – | 87 | 94 | NCc1ccc2c(c1)C1(CCN(C(=O)c3ccc(O)c(O)c3)CC1)CO2 | 0.635 | 2.54 | Stability [2]: Stable |
| 74 | 72 | – | COc1cc(C(=O)N2CCC3(CC2)COc2ccc(CN)cc23)cc(O)c1O | 0.953 | 11.8 | Stability [5]: Stable |
| – | – | – | CSc1sc(C(=O)N2CCC(c3cccc(CN)c3)CC2)cc1-c1cccc2c1COB2O | 0.0142 | – | – |
| 100 | – | 97 | NCc1cccc(C2CCN(C(=O)c3cccc4ccc(B(O)O)cc34)CC2)c1 | 15.8 | – | Papp A→B [8]: 2.8 nm/s; Papp [9]: 20.6 nm/s; Activity [10]: 96.2%; pKa [11]: 9.53; pKa [12]: 8.51; pKa [13]: 8.18; remaining at 1 h, 15 µM [14]: 100%; remaining at 1 h, 15 µM [15]: 100%; remaining at 1 h, 15 µM [16]: 100%; remaining at 1 h, 15 µM [17]: 99%; inhibition at 10 µM (CYP1A2): 45%; inhibition at 10 µM (CYP2D6): 79%; inhibition at 10 µM (CYP3A4): 27%; inhibition at 10 µM (CYP2C9): 97%; inhibition at 10 µM (CYP2C19): 80% |
| 96 | 94 | 85 | NCc1ccc2c(c1)C1(CCN(C(=O)c3cccc(-c4cccc(B(O)O)c4)c3)CC1)CO2 | 1.22 | 1.14 | Tmax [18]: 0.5 h; Time [19]: 24 h; logD [4]: 1.22; solubility [20]: Soluble; half-life [6]: > 6 h; Time [21]: 8 h |
| 68 | 81 | 63 | NCc1cccc(C2CCN(C(=O)c3ccc(CO)c(O)c3)CC2)c1 | 0.0658 | 1.55 | – |
| 84 | 68 | 81 | CONC(=O)c1cc(C(=O)N2CCC(c3cccc(CN)c3)CC2)ccc1O | 3.31 | 0.455 | – |
